What was measured:
refractory epilepsy = conditions: Press et al.; parental reporting; cited from earlier work
[1] = system: myoclonic absence seizures; test: Patients with greater than 50% reduction of myoclonic absence seizures under CBD; format: in vivo, human; conditions: treatment with CBD
[2] = Solubility of the drug substance in water; format: physicochemical
generalized epilepsy = conditions: of eight adult patients with generalized epilepsy; cited from earlier work
[3] = system: focal seizures without impairment; test: Expanded access compassionate use program: 50% responders for focal seizures without impairment; format: in vivo, human; conditions: proportion of patients; 12 weeks of treatment
seizures [4] = conditions: 200 mg/day of pure CBD; four adult patients; cited from earlier work
seizures [5] = conditions: 200 mg day of pure CBD; twelve institutionalized adult patients; open label; cited from earlier work
seizures [6] = conditions: mice; after administration of pro-convulsant drugs or an electric current; cited from earlier work
[7] = system: focal seizures leading to secondary generalisation; test: Expanded access compassionate use program: 50% responders for focal seizures leading to secondary generalisation; format: in vivo, human; conditions: proportion of patients; 12 weeks of treatment
total seizures = test: Expanded access compassionate use program: 50% responders for total seizures, all subjects; format: in vivo, human; conditions: proportion of all subjects treated; 12 weeks of treatment
Description: The terms “50% responder” and “50% reduction in seizure” are both terms used in clinical studies. In the present application the terms define the percentage of subjects that experienced a greater than or equal to 50% reduction in the number of seizures during treatment with CBD in comparison to the number experienced during the baseline period before the CBD was administered.
Of 137 children and young adults with severe, childhood onset treatment-resistant epilepsy (TRE), fifty-one suffered from epilepsy that was characterised by focal seizures. These subjects were tested with a highly purified extract of cannabidiol (CBD) obtained from a Cannabis plant. All subjects presented with focal type seizures, often in addition to generalised seizures. The participants in the study were part of an expanded access compassionate use program for CBD.
All patients entered a baseline period of 4 weeks when parents/caregivers kept prospective seizure diaries, noting all countable seizure types.
The patients then received a highly purified CBD extract (greater than 98% CBD w/w) in sesame oil, of known and constant composition, at a dose of 5 mg/kg/day in addition to their baseline anti-epileptic drug (AED) regimen.

absence seizures = test: Patients with greater than 50% reduction of absence seizures under CBD; format: in vivo, human; conditions: treatment with CBD
seizures [8] = conditions: Consroe et al., 1977; cited from earlier work

| Structure (SMILES) | responder rate by OCE type (refractory epilepsy) [%] | proportion of patients with greater than 50% reduction of myoclonic absence seizures [1] [%] | solubility in water [2] | patients with marked reduction of seizures (generalized epilepsy) | <50% reduction in seizures, Focal Seizures without Impairment (n = 6) [3] [%] | >50% reduction in seizures, Focal Seizures without Impairment (n = 6) [3] [%] | patients who became seizure free (seizures [4]) | control of seizures (seizures [5]) | prevention of seizures (seizures [6]) | <50% reduction in seizures, Focal Seizures Leading to Secondary Generalised (n = 15) [7] [%] | >50% reduction in seizures, Focal Seizures Leading to Secondary Generalised (n = 15) [7] [%] | <50% reduction in seizures, Total seizures (n = 137) (total seizures) | proportion of patients with greater than 50% reduction of absence seizures (absence seizures) [%] | effect on seizures (seizures [8]) |
| --- | --- | --- | --- | --- | --- | --- | --- | --- | --- | --- | --- | --- | --- | --- |
| C=C(C)[C@@H]1CCC(C)=C[C@H]1c1c(O)cc(CCCCC)cc1O [CBD, Cannabidiol] | 35 | 75 | insoluble | 4 | 50 | 50 | two of the four patients became seizure free | ineffective | able to prevent seizures | 53 | 47 | 54% (n = 74) | 64 |  |
| CCCCCc1cc(O)c2c(c1)OC(C)(C)[C@@H]1CCC(C)=C[C@@H]21 [THC, Tetrahydrocannabinol] |  |  |  |  |  |  |  |  |  |  |  |  |  | pro-convulsant |
